In the NIST ThermoML archive (doi:10.1021/je100260z):
“And” between values parts separate entries of the source, which are not always exact repeats. Equal entries are not always repeated.

Details: Crystal, Torsion effusion method

[F][Pb][F] [lead(II) fluoride]
Details	vapor or sublimation pressure
793 K	0.000361 kPa
798 K	0.000411 kPa
803 K	0.000411 kPa
808 K	0.000454 kPa
810 K	0.000454 kPa
811 K	0.000487 kPa
816 K	0.000522 kPa
818 K	0.000554 kPa
820 K	0.000554 kPa
824 K	0.000613 kPa
825 K	0.000613 kPa
827 K	0.000613 kPa
830 K	0.000638 kPa
833 K	0.000664 kPa
835 K	0.000705 kPa
837 K	0.000748 kPa
840 K	0.000771 kPa
841 K	0.000748 kPa
845 K	0.000861 kPa and 0.000827 kPa
846 K	0.000827 kPa
852 K	0.000951 kPa
854 K	0.00098 kPa
856 K	0.00101 kPa
858 K	0.00098 kPa
859 K	0.00098 kPa
863 K	0.001116 kPa
867 K	0.001185 kPa and 0.001116 kPa
868 K	0.001234 kPa
873 K	0.001323 kPa and 0.001284 kPa
875 K	0.001323 kPa
876 K	0.001284 kPa
878 K	0.001391 kPa
882 K	0.001507 kPa
883 K	0.001477 kPa
884 K	0.001419 kPa
886 K	0.001507 kPa
890 K	0.001632 kPa
891 K	0.001682 kPa
895 K	0.001716 kPa
899 K	0.00184 kPa
900 K	0.001896 kPa
903 K	0.001916 kPa
904 K	0.001916 kPa
905 K	0.001896 kPa
910 K	0.002138 kPa and 0.002117 kPa
912 K	0.002075 kPa
913 K	0.002096 kPa
914 K	0.002203 kPa
919 K	0.002387 kPa
921 K	0.002411 kPa
923 K	0.002387 kPa
928 K	0.002638 kPa
931 K	0.002664 kPa
933 K	0.002746 kPa
934 K	0.002801 kPa
948 K	0.003456 kPa
951 K	0.003669 kPa

[F][Pb]([F])([F])[F] [lead(IV) fluoride]
Details	vapor or sublimation pressure [kPa]
603 K	0.000566
612 K	0.000677
622 K	0.000844
628 K	0.000844
631 K	0.00097
634 K	0.000942
635 K	0.001062
638 K	0.001116
639 K	0.001116
644 K	0.001259
645 K	0.001139
647 K	0.001209
648 K	0.001336
653 K	0.001297
654 K	0.001492
657 K	0.0016
658 K	0.001448
663 K	0.001584
664 K	0.001751
666 K	0.00184
668 K	0.001751
669 K	0.001896
670 K	0.001974
673 K	0.001878
675 K	0.002096
676 K	0.001974
682 K	0.00234
684 K	0.002203
